Assay results as given in PubChem BioAssay (NCI).
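Test compounds were applied to cells in 96-well plates for 48 hours at 5 doses. At the GI50, growth is halved. TGI: total growth inhibition.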

Legend:
Assay in all cases: DTP human tumour cell line panel, 48 h
SF-539 CNS = tested on: SF-539 CNS
MCF7 breast = tested on: MCF7 breast
NCI-H522 lung = tested on: NCI-H522 lung
SF-295 CNS = tested on: SF-295 CNS
NCI-H460 lung = tested on: NCI-H460 lung
HOP-62 NSCLC = tested on: HOP-62 NSCLC
KM12 colon = tested on: KM12 colon
M14 melanoma = tested on: M14 melanoma
RPMI-8226 leukemia = tested on: RPMI-8226 leukemia
HS 578T breast = tested on: HS 578T breast
UO-31 renal = tested on: UO-31 renal
SK-MEL-2 melanoma = tested on: SK-MEL-2 melanoma
CCRF-CEM leukemia = tested on: CCRF-CEM leukemia
EKVX NSCLC = tested on: EKVX NSCLC
SR leukemia = tested on: SR leukemia
SK-OV-3 ovarian = tested on: SK-OV-3 ovarian
SF-268 CNS = tested on: SF-268 CNS
786-0 renal = tested on: 786-0 renal
A549 NSCLC = tested on: A549 NSCLC
HT29 colon = tested on: HT29 colon
MDA-MB-435 = tested on: MDA-MB-435
CAKI-1 renal = tested on: CAKI-1 renal
SN12C renal = tested on: SN12C renal
U251 CNS = tested on: U251 CNS
COLO 205 colon = tested on: COLO 205 colon
NCI-H23 lung = tested on: NCI-H23 lung
TK-10 renal = tested on: TK-10 renal
MALME-3M melanoma = tested on: MALME-3M melanoma
NCI/ADR-RES ovarian = tested on: NCI/ADR-RES ovarian
MOLT-4 leukemia = tested on: MOLT-4 leukemia
SNB-75 CNS = tested on: SNB-75 CNS
K-562 leukemia = tested on: K-562 leukemia
MDA-MB-231 breast = tested on: MDA-MB-231 breast
UACC-62 melanoma = tested on: UACC-62 melanoma
NCI-H226 lung = tested on: NCI-H226 lung
UACC-257 melanoma = tested on: UACC-257 melanoma
LOX IMVI melanoma = tested on: LOX IMVI melanoma
OVCAR-4 ovarian = tested on: OVCAR-4 ovarian
SW-620 colon = tested on: SW-620 colon
SK-MEL-5 melanoma = tested on: SK-MEL-5 melanoma
RXF 393 renal = tested on: RXF 393 renal
HL-60(TB) leukemia = tested on: HL-60(TB) leukemia
BT-549 breast = tested on: BT-549 breast
DU-145 prostate = tested on: DU-145 prostate
OVCAR-3 ovarian = tested on: OVCAR-3 ovarian
SK-MEL-28 melanoma = tested on: SK-MEL-28 melanoma
HCT-15 colon = tested on: HCT-15 colon
A498 renal = tested on: A498 renal
OVCAR-8 ovarian = tested on: OVCAR-8 ovarian
HCC-2998 colon = tested on: HCC-2998 colon
SNB-19 CNS = tested on: SNB-19 CNS
IGROV1 ovarian = tested on: IGROV1 ovarian
HCT-116 colon = tested on: HCT-116 colon
OVCAR-5 ovarian = tested on: OVCAR-5 ovarian
ACHN renal = tested on: ACHN renal
PC-3 prostate = tested on: PC-3 prostate

## O=C(c1ccco1)c1nc2ccc(Cl)cc2[n+]([O-])c1C(F)(F)F
SF-539 CNS
  GI50: > 100 µM
  TGI: > 100 µM
MCF7 breast
  GI50: 30.4 µM
  TGI: > 100 µM
NCI-H522 lung
  GI50: > 100 µM
  TGI: > 100 µM
SF-295 CNS
  GI50: > 100 µM
  TGI: > 100 µM
NCI-H460 lung
  GI50: 91.4 µM
  TGI: > 100 µM
HOP-62 NSCLC
  GI50: 91.3 µM
  TGI: > 100 µM
KM12 colon
  GI50: > 100 µM
  TGI: > 100 µM
M14 melanoma
  GI50: > 100 µM
  TGI: > 100 µM
RPMI-8226 leukemia
  GI50: 31.1 µM
  TGI: > 100 µM
HS 578T breast
  GI50: > 100 µM
  TGI: > 100 µM
UO-31 renal
  GI50: > 100 µM
  TGI: > 100 µM
SK-MEL-2 melanoma
  GI50: > 100 µM
  TGI: > 100 µM
CCRF-CEM leukemia
  GI50: 39.4 µM
  TGI: > 100 µM
EKVX NSCLC
  GI50: 96.2 µM
  TGI: > 100 µM
SR leukemia
  GI50: 66.3 µM
  TGI: > 100 µM
SK-OV-3 ovarian
  GI50: > 100 µM
  TGI: > 100 µM
SF-268 CNS
  GI50: 50.1 µM
  TGI: > 100 µM
786-0 renal
  GI50: > 100 µM
  TGI: > 100 µM
A549 NSCLC
  GI50: > 100 µM
  TGI: > 100 µM
HT29 colon
  GI50: > 100 µM
  TGI: > 100 µM
MDA-MB-435
  GI50: > 100 µM
  TGI: > 100 µM
CAKI-1 renal
  GI50: 95.6 µM
  TGI: > 100 µM
SN12C renal
  GI50: > 100 µM
  TGI: > 100 µM
U251 CNS
  GI50: 69.8 µM
  TGI: > 100 µM
COLO 205 colon
  GI50: > 100 µM
  TGI: > 100 µM
NCI-H23 lung
  GI50: > 100 µM
  TGI: > 100 µM
TK-10 renal
  GI50: 62.7 µM
  TGI: > 100 µM
MALME-3M melanoma
  GI50: > 100 µM
  TGI: > 100 µM
NCI/ADR-RES ovarian
  GI50: > 100 µM
  TGI: > 100 µM
MOLT-4 leukemia
  GI50: > 100 µM
  TGI: > 100 µM
SNB-75 CNS
  GI50: 52.8 µM
  TGI: > 100 µM
K-562 leukemia
  GI50: > 100 µM
  TGI: > 100 µM
MDA-MB-231 breast
  GI50: 59.1 µM
  TGI: > 100 µM
UACC-62 melanoma
  GI50: > 100 µM
  TGI: > 100 µM
NCI-H226 lung
  GI50: > 100 µM
  TGI: > 100 µM
UACC-257 melanoma
  GI50: > 100 µM
  TGI: > 100 µM
LOX IMVI melanoma
  GI50: > 100 µM
  TGI: > 100 µM
OVCAR-4 ovarian
  GI50: > 100 µM
  TGI: > 100 µM
SW-620 colon
  GI50: > 100 µM
  TGI: > 100 µM
SK-MEL-5 melanoma
  GI50: 90.3 µM
  TGI: > 100 µM
RXF 393 renal
  GI50: 27.4 µM
  TGI: 62 µM
HL-60(TB) leukemia
  GI50: > 100 µM
  TGI: > 100 µM
BT-549 breast
  GI50: > 100 µM
  TGI: > 100 µM
DU-145 prostate
  GI50: > 100 µM
  TGI: > 100 µM
OVCAR-3 ovarian
  GI50: > 100 µM
  TGI: > 100 µM
SK-MEL-28 melanoma
  GI50: > 100 µM
  TGI: > 100 µM
HCT-15 colon
  GI50: > 100 µM
  TGI: > 100 µM
A498 renal
  GI50: > 100 µM
  TGI: > 100 µM
OVCAR-8 ovarian
  GI50: 64.9 µM
  TGI: > 100 µM
HCC-2998 colon
  GI50: 88.4 µM
  TGI: > 100 µM
SNB-19 CNS
  GI50: 72.6 µM
  TGI: > 100 µM
IGROV1 ovarian
  GI50: > 100 µM
  TGI: > 100 µM
HCT-116 colon
  GI50: > 100 µM
  TGI: > 100 µM
OVCAR-5 ovarian
  GI50: > 100 µM
  TGI: > 100 µM
ACHN renal
  GI50: > 100 µM
  TGI: > 100 µM
PC-3 prostate
  GI50: 37.1 µM
  TGI: > 100 µM
